Test results as given in patent US20030171347A1, “Sigma receptor antagonists having anti-cocaine properties and uses thereof” (priority 1998, published 2003).
Read-outs that look alike come from different tables or passages of the source.

Columns and labels:
σ1 receptors [1] = assay: Antisense oligodeoxynucleotide (i.c.v.), basal locomotor activity; type: in vivo, mouse; details: i.c.v. antisense treatment, 30 min before the cocaine challenge
σ1 receptors [2] = assay: Antisense oligodeoxynucleotide (i.c.v.) against locomotor stimulatory effects of cocaine; type: in vivo, mouse
σ1 receptors [3] = assay: Antisense oligodeoxynucleotide (i.c.v.) against cocaine-induced convulsions; type: in vivo, mouse
rat red nucleus = assay: Acute dystonic reaction after microinjection into the rat red nucleus; type: in vivo; details: alone and against sigma agonists such as DTG
[4] = molecular target: T1, muscarinic cholinergic receptors (Rattus norvegicus, UniProt P08482); assay: Muscarinic cholinergic receptor competition binding
T1 construct: from tissue; host or cells: rat brain homogenate / P2 membranes
T1 sequence (P08482 1-460): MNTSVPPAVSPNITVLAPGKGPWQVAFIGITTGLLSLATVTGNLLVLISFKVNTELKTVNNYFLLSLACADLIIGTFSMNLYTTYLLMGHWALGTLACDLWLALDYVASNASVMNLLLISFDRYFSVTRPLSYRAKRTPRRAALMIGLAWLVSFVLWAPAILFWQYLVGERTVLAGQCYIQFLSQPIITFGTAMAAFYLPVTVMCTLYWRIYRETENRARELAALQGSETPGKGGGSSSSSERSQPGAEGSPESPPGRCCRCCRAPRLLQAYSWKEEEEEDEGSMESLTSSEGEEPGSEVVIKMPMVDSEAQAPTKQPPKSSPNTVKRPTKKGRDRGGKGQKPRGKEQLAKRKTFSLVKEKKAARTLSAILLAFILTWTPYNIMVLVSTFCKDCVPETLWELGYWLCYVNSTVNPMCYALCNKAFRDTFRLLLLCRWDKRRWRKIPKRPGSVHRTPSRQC

Male, Swiss Webster mice [5] = assay: Effects of sigma ligands alone on baseline locomotor activity; type: in vivo; details: 30 min; i.p. mg/kg: BD1008 1, BD1067 5, BD1047 30, LR172 5, BD1018 30, BD1063 30, LR132 30, LR176 10, YZ011 0.1, YZ027 1, YZ029 5
Dopamine (D2) receptors = molecular target: T2, Dopamine (D2) receptors (Rattus norvegicus, UniProt P61169); assay: Dopamine D2 receptor competition binding ([3H](−)sulpiride)
T2 construct: from tissue; host or cells: rat brain homogenate / P2 membranes

β-adrenoceptors = assay: β-adrenoceptor competition binding ([3H]dihydroalprenolol); details: rat brain homogenates
5-HT1 receptors = assay: 5-HT1 receptor competition binding ([3H]5-HT); details: rat brain homogenates
[6] = molecular target: PCP sites on NMDA receptors (Rattus norvegicus, UniProt P35439); assay: PCP site competition binding ([3H]TCP)
α1-adrenoceptors = assay: α1-adrenoceptor competition binding ([3H]prazosin); details: rat brain homogenates
Male, Swiss Webster mice [7] = assay: Attenuation of cocaine-induced locomotor activity; type: in vivo; details: same ligand doses as baseline test, 15 min before cocaine 10 mg/kg i.p.; 30 min; ANOVA
5-HT2 receptors = 5-HT2 receptors (Rattus norvegicus, UniProt P14842); assay: 5-HT2 receptor competition binding ([3H]ketanserin)
σ1 receptors [8] = molecular target: T3, σ1 receptors (Cavia porcellus, UniProt Q60492); assay: σ1 receptor competition binding; parameters: species or system guinea pig
T3 construct: Crude P2 membranes were prepared from guinea pig brain, rat brain, or rat liver; from tissue; host or cells: guinea pig brain (crude P2 membranes)

α2-adrenoceptors = assay: α2-adrenoceptor competition binding ([3H]clonidine); details: rat brain homogenates
σ2 sites = molecular target: T4, σ2 sites (Rattus norvegicus, UniProt Q5U3Y7); assay: σ2 receptor competition binding
T4 construct: Crude P2 membranes were prepared from guinea pig brain, rat brain, or rat liver; from tissue; host or cells: rat liver (crude P2 membranes)
T4 sequence (Q5U3Y7 1-176): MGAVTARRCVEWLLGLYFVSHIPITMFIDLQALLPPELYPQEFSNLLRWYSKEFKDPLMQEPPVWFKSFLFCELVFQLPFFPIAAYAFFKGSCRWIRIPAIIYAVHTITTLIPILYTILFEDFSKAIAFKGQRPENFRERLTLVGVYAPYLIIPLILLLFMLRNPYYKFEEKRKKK

[9] = NYU sequences, 10 μg/5 μl i.c.v. on Days 1, 2 and 4, cocaine 60 mg/kg i.p. on Day 5
[10] = rat brain homogenates, [3H](−)sulpiride, read-out: Dopamine (D2)
[11] = rat brain homogenates, [3H]TCP, read-out: NMDA (PCP)
[12] = rat brain homogenates, [3H]ketanserin, read-out: 5-HT2
[13] = Table 1, [3H]DTG plus dextrallorphan, rat liver, mean±SEM, minimum of two independent assays
[14] = Table 1, [3H](+)-pentazocine, guinea pig brain, mean±SEM, minimum of two independent assays, read-out: σ1
[15] = Table 4, second series, [3H]DTG plus dextrallorphan, rat liver
[16] = Table 4, second series, [3H](+)-pentazocine, guinea pig brain, read-out: σ1

5-HT2 receptors, sequence (P14842 whole entry): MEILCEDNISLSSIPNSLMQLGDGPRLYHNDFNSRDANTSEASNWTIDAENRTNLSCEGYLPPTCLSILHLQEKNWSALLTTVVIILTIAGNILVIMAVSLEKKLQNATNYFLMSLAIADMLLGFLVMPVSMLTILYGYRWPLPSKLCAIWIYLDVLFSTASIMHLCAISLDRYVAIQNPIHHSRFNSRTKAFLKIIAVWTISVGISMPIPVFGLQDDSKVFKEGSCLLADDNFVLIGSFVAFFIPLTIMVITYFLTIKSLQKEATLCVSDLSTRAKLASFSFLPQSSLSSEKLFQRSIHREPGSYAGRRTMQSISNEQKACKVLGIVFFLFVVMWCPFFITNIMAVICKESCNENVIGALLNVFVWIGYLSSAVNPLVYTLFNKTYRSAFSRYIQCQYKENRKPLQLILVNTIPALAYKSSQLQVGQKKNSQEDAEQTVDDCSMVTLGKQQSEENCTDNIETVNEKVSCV
T2 sequence (P61169 whole entry): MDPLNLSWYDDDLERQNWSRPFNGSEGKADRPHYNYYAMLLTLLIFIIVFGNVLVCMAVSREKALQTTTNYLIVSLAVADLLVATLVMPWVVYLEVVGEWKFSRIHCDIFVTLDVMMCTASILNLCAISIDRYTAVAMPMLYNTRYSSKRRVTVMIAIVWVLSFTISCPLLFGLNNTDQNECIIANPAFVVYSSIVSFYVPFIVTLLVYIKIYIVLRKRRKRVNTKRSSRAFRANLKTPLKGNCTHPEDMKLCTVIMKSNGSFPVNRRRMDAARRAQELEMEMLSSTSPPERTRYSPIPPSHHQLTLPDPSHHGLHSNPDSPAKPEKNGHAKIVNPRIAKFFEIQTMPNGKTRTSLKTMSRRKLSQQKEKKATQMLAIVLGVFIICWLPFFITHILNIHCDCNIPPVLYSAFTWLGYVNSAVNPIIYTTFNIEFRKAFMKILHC
T3 sequence (Q60492 whole entry): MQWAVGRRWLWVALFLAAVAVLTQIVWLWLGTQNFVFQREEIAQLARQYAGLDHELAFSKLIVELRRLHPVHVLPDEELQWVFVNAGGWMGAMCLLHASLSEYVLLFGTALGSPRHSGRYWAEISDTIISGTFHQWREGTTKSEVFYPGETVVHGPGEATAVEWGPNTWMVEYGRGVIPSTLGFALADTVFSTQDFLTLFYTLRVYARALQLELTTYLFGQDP

Row | Compound | IC50 (Dopamine (D2) receptors; [10]) [µM] | IC50 [6, 11] [µM] | IC50 (5-HT2 receptors; [12]) [µM] | Ki (σ2 sites; [13]) [µM] | Ki (σ1 receptors [8]; [14]) [µM] | Ki (σ2 sites; [15]) [µM] | other results
1 | 5′-CCCACGGCATCCCAGCGG-3′ (all phosphorothioate, sugars by position and methylation of C not given here) [McGill antisense, 18-mer phosphorothioate antisense oligodeoxynucleotide targeting the 5′-end of the σ1 receptor (Kitaichi et al., 1997)] |  |  |  |  |  |  | basal locomotor activity (σ1 receptors [1]): no effects on basal locomotor activity; effect on locomotor stimulatory effects of cocaine (σ1 receptors [2]; McGill, 10 nmol/5 μl i.c.v. every 12 hours, four times, cocaine 10 mg/kg i.p.): attenuates the locomotor stimulatory effects of cocaine; effect on cocaine-induced convulsions (σ1 receptors [3]; McGill, 10 nmol/5 μl i.c.v. every 12 hours, four times, cocaine 60 mg/kg i.p. 12 hours after last): significant attenuation of cocaine-induced convulsions
2 | 5′-GAGGTCCCGACCACACACAGG-3′ (all phosphorothioate, sugars by position and methylation of C not given here) [mismatch] |  |  |  |  |  |  | effect on cocaine-induced convulsions (σ1 receptors [3]; [9]): responses no different from the saline-treated animals
3 | 5′-GAGTGCCCAGCCACAACCAGG-3′ (all phosphorothioate, sugars by position and methylation of C not given here) [NYU antisense, 21-mer phosphorothioate antisense oligodeoxynucleotide against mouse σ1 receptors (King et al., 1997)] |  |  |  |  |  |  | basal locomotor activity (σ1 receptors [1]): no effects on basal locomotor activity; effect on locomotor stimulatory effects of cocaine (σ1 receptors [2]; NYU, 10 μg/5 μl i.c.v. on Days 1, 2 and 4, cocaine 10 mg/kg i.p. on Day 5): attenuates the locomotor stimulatory effects of cocaine; effect on cocaine-induced convulsions (σ1 receptors [3]; [9]): protected against the convulsive effects of cocaine
4 | CC(C)=CCN1CCC2(C)c3cc(O)ccc3CC1C2C (single isomer, unassigned; (+)) [(+)-Pentazocine, reference compound] |  |  |  |  |  |  | agonist versus antagonist designation (dystonic head postures) (rat red nucleus): agonists
5 | CN(C)CCN(C)CCc1ccc(Cl)c(Cl)c1 [BD1047] |  |  |  |  |  |  | IC50 [4]: 8 ± 1 µM; baseline horizontal locomotor activity versus saline (Male, Swiss Webster mice [5]): no significant difference; IC50 (Dopamine (D2) receptors): > 10 µM; IC50 (β-adrenoceptors): 0.145 ± 0.1 µM; IC50 (5-HT1 receptors): > 10 µM; agonist versus antagonist designation (dystonic head postures) (rat red nucleus): functional antagonists; IC50 [6]: > 10 µM; IC50 (α1-adrenoceptors): > 10 µM; cocaine stimulated locomotor activity after pre-treatment (Male, Swiss Webster mice [7]): significant reduction in cocaine stimulated locomotor activity; IC50 (5-HT2 receptors): 4.67 ± 2.63 µM; Ki (σ1 receptors [8]): 0.0009 ± 0.00014 µM; IC50 (α2-adrenoceptors): > 10 µM
6 | CN1CCN(CCc2ccc(Cl)c(Cl)c2)CC1 [BD1063] | > 10 | > 10 | 2.55 ± 2.42 |  |  |  | IC50 ([4]; rat brain homogenates, [3H]pirenzepine, read-out: mACh): 9.46 ± 0.75 µM; baseline horizontal locomotor activity versus saline (Male, Swiss Webster mice [5]): no significant difference; IC50 (β-adrenoceptors): > 10 µM; IC50 (5-HT1 receptors): > 10 µM; agonist versus antagonist designation (dystonic head postures) (rat red nucleus): functional antagonists; IC50 (α1-adrenoceptors): > 10 µM; cocaine stimulated locomotor activity after pre-treatment (Male, Swiss Webster mice [7]): significant reduction in cocaine stimulated locomotor activity; Ki (σ1 receptors [8]): 0.009 ± 0.001 µM; IC50 (α2-adrenoceptors): > 10 µM
7 | CCCN(CCc1ccc(Cl)c(Cl)c1)CCN1CCCCC1 [BD1069] | > 10 | > 10 | > 10 | 0.545 ± 0.139 |  |  | agonist versus antagonist designation (dystonic head postures) (rat red nucleus): variable, partial agonist actions; Ki (σ1 receptors [8]; read-out: σ1): 0.001 ± 0.0002 µM
8 | OC(CCCN1CCN(c2ncc(F)cn2)CC1)c1ccc(F)cc1 (centres unmarked) [BMY14802, reference compound] |  |  |  | 0.051 ± 0.008 |  |  | 
9 | Fc1ccc(C(OCCN2CCN(CCCc3ccccc3)CC2)c2ccc(F)cc2)cc1 [GBR 12909, reference compound] |  |  |  |  |  |  | Ki (σ2 sites; Table 5, dopamine transporter ligands): 0.133 ± 0.037 µM; Ki (σ1 receptors [8]; Table 5, dopamine transporter ligands, read-out: σ1): 0.132 ± 0.031 µM
10 | C[C@@H]1CN(CCCn2c3ccccc3c3ccccc32)C[C@H](C)N1 [Rimcazole, reference compound] |  |  |  | 1.16 ± 0.16 |  |  | 
11 | COc1cccc(CC(=O)N(C)CCN2CCCC2)c1 [YZ-005] | > 10 | > 10 | > 10 | 1.11 ± 0.055 | 3.101 ± 0.02 |  | 
12 | COc1ccc(CC(=O)N(C)CCN2CCCC2)cc1 [YZ-007] | > 10 | > 10 | > 10 | 1.22 ± 0.095 | 2.22 ± 0.061 |  | 
13 | COc1ccccc1CC(=O)N(C)CCN1CCCC1 [YZ-008] | > 10 | > 10 | > 10 | 3.17 ± 0.144 |  |  | 
14 | CN(CCc1cccc([N+](=O)[O-])c1)CCN1CCCC1 [YZ-027] | > 10 | > 10 | > 10 | 0.095 ± 0.0007 | 0.006 ± 0.002 |  | baseline horizontal locomotor activity versus saline (Male, Swiss Webster mice [5]): no significant difference; cocaine stimulated locomotor activity after pre-treatment (Male, Swiss Webster mice [7]): significant reduction in cocaine stimulated locomotor activity
15 | CN(CCc1ccccc1[N+](=O)[O-])CCN1CCCC1 [YZ-028] | > 10 | > 10 | > 10 | 0.311 ± 0.004 | 0.008 ± 0.0009 |  | 
16 | CN(CCc1ccc([N+](=O)[O-])cc1)CCN1CCCC1 [YZ-029] | > 10 | > 10 | > 10 | 0.063 ± 0.0001 | 0.004 ± 0.0009 |  | baseline horizontal locomotor activity versus saline (Male, Swiss Webster mice [5]): no significant difference; cocaine stimulated locomotor activity after pre-treatment (Male, Swiss Webster mice [7]): significant reduction in cocaine stimulated locomotor activity
17 | CN(CCc1ccc(N)cc1)CCN1CCCC1 [YZ-030] | > 10 | > 10 | > 10 | 0.973 ± 0.077 | 0.276 ± 0.013 |  | 
18 | CN(CCc1ccccc1N)CCN1CCCC1 [YZ-032] | > 10 | > 10 | > 10 | 0.64 ± 0.025 | 0.291 ± 0.038 |  | 
19 | CN(CCc1cccc(N)c1)CCN1CCCC1 [YZ-033] | > 10 | > 10 | > 10 | 2.23 ± 0.26 | 0.579 ± 0.035 |  | 
20 | COc1ccccc1CC(=O)N1CCN(CCCc2ccccc2)CC1 [YZ-048-2] |  |  |  | 0.294 ± 0.01 | 0.056 ± 0.008 | 0.294 ± 0.01 | Ki (σ1 receptors [8]; [16]): 0.056 ± 0.008 µM
21 | COc1ccc(CC(=O)N2CCN(CCCc3ccccc3)CC2)cc1 [YZ-051-2] |  |  |  | 0.464 ± 0.034 | 0.013 ± 0.002 | 0.464 ± 0.034 | Ki (σ1 receptors [8]; [16]): 0.013 ± 0.002 µM
22 | COc1ccc(CCN2CCN(CCCc3ccccc3)CC2)cc1 [YZ-067-2] |  |  |  | 0.029 ± 0.002 | 0.001 ± 0.0003 | 0.029 ± 0.002 | Ki (σ1 receptors [8]; [16]): 0.001 ± 0.0003 µM
23 | Clc1ccc(CCN2CCN(CCCc3ccccc3)CC2)cc1Cl [YZ-069-2] |  |  |  | 0.039 ± 0.002 | 0.002 ± 0.0002 | 0.039 ± 0.002 | Ki (σ1 receptors [8]; [16]): 0.002 ± 0.0002 µM
24 | COc1cccc(CCN2CCN(C(=O)Cc3cccc(OC)c3)CC2)c1 [YZ-085-2] |  |  |  | 0.012 ± 0.002 |  | 0.012 ± 0.002 | 
25 | NCCN1CCN(CCCc2ccccc2)CC1 [YZ-136-2] |  |  |  | 0.188 ± 0.013 | 0.003 ± 9e-05 | 0.188 ± 0.013 | Ki (σ1 receptors [8]; [16]): 0.003 ± 9e-05 µM
26 | O=C(Cc1ccc([N+](=O)[O-])cc1)N1CCN(CCCc2ccccc2)CC1 [YZ-155-2] |  |  |  | 0.167 ± 0.004 | 0.014 ± 0.001 | 0.167 ± 0.004 | Ki (σ1 receptors [8]; [16]): 0.014 ± 0.001 µM
27 | Nc1ccccc1CCN1CCN(CCCc2ccccc2)CC1 [YZ-165-2-2] |  |  |  | 0.018 ± 0.0002 | 0.005 ± 0.0001 | 0.018 ± 0.0002 | Ki (σ1 receptors [8]; [16]): 0.005 ± 0.0001 µM
28 | COc1ccccc1CCN1CCN(CCCc2ccccc2)CC1 [YZ-184-2] |  |  |  | 0.008 ± 0.0002 |  | 0.008 ± 0.0002 | 
